# Test results published in patent US11839210B1, “Plant growth promoter with strigolactones regulation activities” (King Abdullah University of Science and Technology, priority 2017, dated 2023).
# Columns and labels:
# [1] = system: Striga hermonthica; experiment: Striga hermonthica infection in rice (pots with Striga infested soil); assay type: in vivo, Striga hermonthica on rice cv. IAC-165; details: 10 μM zaxinone
# Protocol: About 10 mg (4000) of Striga seeds were thoroughly mixed in 2 L soil and sand mixture (1:1), and added to a 3 L plastic pot. The pots with Striga seeds were kept under moist conditions at 35° C. for 10 days. Five days-old three rice seedlings (Oryza sativa L. cv. IAC-165) were then planted in the middle of each pot. A stock of 10 mM of zaxinone was prepared by mixing with an emulsifier (cyclohexanone+Atlas G1086). Three days after rice planting, zaxinone was applied at 10 μM through 20 ml water in each pot. Zaxinone was applied twice a week for up-to five weeks. Striga emergences were recorded six weeks after rice planting.
# [2] = system: D27; experiment: qRT-PCR of D27 gene expression in rice roots after zaxinone treatment; assay type: in vivo, rice (Oryza sativa Nipponbare); details: −Pi, 6 h
# Protocol: For the analysis of SL transcript levels in the zas mutant, one week-old seedlings were grown hydroponically in half-strength modified Hoagland nutrient solution with K2HPO4·2H2O (+Pi) and without K2HPO4·2H2O (−Pi) for 7 days. Seedlings were further treated with zaxinone for 6 h and tissues were collected.
# (§1) Total RNA was extracted from the roots and shoots using a Qiagen Plant RNeasy Kit according to the manufacturer's instruction. cDNA was synthesized from 1 μg of total RNA using iScript cDNA Synthesis Kit (BIO-RAD Laboratories, Inc, 2000 Alfred Nobel Drive, Hercules, CA, Cat. No #170-8890) according to instructions in the user manual. For mycorrhizal samples, single-strand cDNA was synthesized from 1 μg of total RNA using Super-Script II (Invitrogen) according to instructions in the user manual. Primers used for real-time quantitative RT-PCR (qRT-PCR) analysis are listed below in Table 3. qRT-PCR was performed using SYBR Green Master Mix (Applied Biosystems; www.lifetechnologies.com) in a StepOnePlus (Life Technologies, Carlsbad, CA, USA). For mycorrhizal samples, qRT-PCR was performed using a Rotor-Gene Q 5plex HRM Platform (Qiagen). The 2-ΔCt method was used to calculate the relative gene expression levels and rice Ubiquitin (OsUBQ or OsRubQ1) gene was used as the internal control to normalize target gene expression.
# 14-day-old rice seedlings were transferred to new hydroponic pots containing fresh media with or without chemicals for 6 hours. SL biosynthetic (D27, D10, D17 and MAX1-Os900) gene expression were determined under −Pi conditions (phosphate deficient) with zaxinone (2.5 and 5 μM) treatment of both Nipponbare wild-type (WT) rice roots and zas mutant rice roots. The expression levels (1301) were detected by quantitative RT-PCR. Ubiquitin was used as a reference gene. Mock treatment (control) treatment consisted of 0.1% acetone. Bars (1302) show comparisons between the treatments and represent mean±SD (n=3). Decrease in SLs levels in the plants treated with zaxinone ranged from approximately 40% to 70%.
# [3] = system: Zaxinone Synthase (ZAS); experiment: qRT-PCR of ZAS transcript levels in rice after zaxinone or GR24; assay type: in vivo, rice (Nipponbare); details: phosphate starvation, 5 μM, 6 h
# Protocol: as §1
# FIGS. 14A-14C show transcript levels of Zaxinone Synthase (ZAS) in wild type roots and shoots. In FIG. 14A, the relative expression levels of ZAS under normal (+Pi) and phosphate-starved (−Pi) conditions in Nipponbare wild-type (WT) roots and shoots is seen. The expression levels in the WT root were normalized to 1. In FIG. 14B, the relative expression levels of ZAS under −Pi conditions with 5 μM of Zaxinone and GR24 treatment in WT rice root and shoot is seen. Three weeks-old seedlings were transferred to new hydroponic pots containing fresh media with or without chemicals for 6 h. The expression levels in the WT-mock were normalized to 1 and the expression levels were detected by qRT-PCR. Ubiquitin was used as a reference gene. Bars represent mean±SD (n=3). Mock treatment (0.1% acetone). Different letters above each bar denote significant difference following a One-way ANOVA test (P<0.05).
# [4] = system: mycorrhizal wild-type and zas mutant rice plants; experiment: Zaxinone effect on mycorrhizal rice plants (phenotype and AM colonization); assay type: in vivo, Oryza sativa Nipponbare
# Protocol: Seeds of WT (cv. Nipponbare) and zas mutant were germinated in pots containing sand and incubated for 10 days in a growth chamber under conditions having a 14 h light (23° C.)/10 h dark (21° C.) cycle. Plants used for mycorrhization were inoculated with Funelliformis mosseae (BEG 12, MycAgroLab, France) or Rhizophagus irregularis (INOQ GmbH, Germany) Both fungi inocula (25%) were mixed with sterile quartz sand and used for colonization. Plants were watered with a modified Long-Ashton (LA) solution containing 3.2 μM Na2HPO4·12H2O and were grown in a growth chamber under the 14 h light (24° C.)/10 h dark (20° C.) regime.
# Wild-type and zas mycorrhizal plants were grown in sand and watered twice a week with different concentrations of zaxinone (5 μM; 0.5 μM; 50 nM) directly applied in the Long Ashton nutrient solution. Data were collected 35 days post germination (dpg).
# Wild-type and zas mycorrhizal roots were stained with 0.1% cotton blue in lactic acid and the estimation of mycorrhizal parameters was performed using MYCOCALC. For the molecular analyses, roots were immediately frozen in liquid nitrogen and stored at −80° C.
# Mycorrizhal plants were grown in sand and watered with Long Ashton solution (3.2 μM Pi) for five weeks post AM fungus inoculation. FIGS. 23A-23F show the effect of twice a week treatment with zaxinone (5 μM) for wild-type (WT) and zas mutant (zas) plants. Data are means±SE, n=9 plants. Different letters above the bars indicate significant differences according to Tukey's test (P<0.05).
smiles,measurement,setting,value
"CC(=O)/C=C/C=C(C)/C=C/C1=C(C)C[C@@H](O)CC1(C)C [zaxinone, 3-OH-β-apo-13-carotenone]",reduction of number of emerging Striga plants vs untreated control,[1]; rice cv. IAC-165 in pots with Striga infested soil,around 80%
same,number of emerging Striga plants,"[1]; six-week old rice cv. IAC-165 in soil, mock around 15-25",less than 10
same,decrease of D27 relative expression vs mock,"[2]; WT rice roots, 2.5 μM zaxinone",approximately 50%
same,D27 relative expression,"[2]; WT rice roots, 2.5 μM zaxinone, WT mock approx. 1.0",approximately 0.5
same,decrease of D27 relative expression vs mock,"[2]; WT rice roots, 5.0 μM zaxinone",~75%
same,D27 relative expression,"[2]; WT rice roots, 5.0 μM zaxinone, WT mock approx. 1.0",approximately 0.25
same,decrease of D27 relative expression vs mock,"[2]; zas mutant rice roots, 2.5 μM zaxinone",approximately 63%
same,D27 relative expression,"[2]; zas mutant rice roots, 2.5 μM zaxinone, zas mock approx. 3.25",approximately 1.2
same,decrease of D27 relative expression vs mock,"[2]; zas mutant rice roots, 5.0 μM zaxinone",~77%
same,D27 relative expression,"[2]; zas mutant rice roots, 5.0 μM zaxinone, zas mock approx. 3.25",approximately 0.75
same,effect on ZAS transcript levels compared between zaxinone and GR24,[3]; WT rice root tissues,more pronounced effect
same,ZAS transcript levels in root tissues,[3]; WT rice,negatively impacted
same,AM colonization capacity,[4]; 5 μM zaxinone,did not improve
same,growth vs Mock treatment,"[4]; WT mycorrhizal plants, 5 μM zaxinone twice a week, five weeks",did not significantly differ
same,"crown root number, root biomass, shoot length and shoot biomass","[4]; zas mutant mycorrhizal plants, 5 μM zaxinone twice a week, five weeks",significant increase
